# Data: patent US20020132281A1, “Secretases related to alzheimer's dementia” (priority 1998, published 2002)
# Entries after “also recorded” stand apart in the source; their conditions may differ. Square brackets hold non-standard residues; d marks the D form. Peptide text beside a SMILES is read from it. * marks the point of attachment. Sta = CC(C)C[C@H](N)[C@@H](O)CC(=O)O; Isovaleryl = CC(C)CC(=O)*
# Columns and labels:
# [1] = system: β-secretase endoprotease activity; test: β-secretase endoprotease activity with/without DTT in fractions obtained during isolation of chromaffin vesicles; type: biochemical, bovine; settings: pH 5.5
# Experimental: The effect of the reducing agent dithiothreitol (DTT) on β-secretase endoprotease activity was determined using the assay described in Example III. Briefly, the lysed vesicles were incubated with the substrate Z*Val-Lys-Met-MCA in the presence or absence of 1 mM DTT and the resulting fluorescence plotted as a function of pH. Both with and without DTT, β-secretase endoprotease activity was detected and in both cases that activity had pH optimum of about 4.0 to 6.0, which is consistent with the intravesicular pH of chromaffin vesicles.
# The β-secretase endoprotease activity of fractions obtained during the isolation procedure described in Example I was determined at the pH optimum of 5.5, with and without DTT using the assay described in Example VII.
# [2] = system: β-secretase endoprotease activity in chromaffin vesicles; test: Effect of reducing agent DTT on β-secretase endoprotease activity in chromaffin vesicle lysate; type: biochemical, bovine; settings: 1 mM DTT vs absence of DTT; lysed vesicles
# Experimental: The β-secretase endoprotease activity was identified by incubating the chromaffin vesicle lysate (2-10 μl of 10-20 mg protein/ml) with the Z*Val-Lys-Met-MCA substrate (100 μM final concentration) and detecting AMC fluorescence. The chromaffin vesicle lysate was prepared as described in Example I. The endoprotease activity was determined as a function of pH by varying the pH of the incubation solution between 3.0 to 8.0 in 0.5 pH increments. Citric acid, sodium phosphate, and Tris-HCl buffers (100 mM final concentration) were used to adjust the pH of the incubation solutions between 3.0 to 5.5, 6.0 to 7.5, and 8.0, respectively. […]
# As discussed above, endoprotease cleavage between the Met-MCA bond in the Z*Val-Lys-Met-MCA substrate produces fluorescent AMC, but endoprotease cleavage between the Lys-Met or Val-Lys bonds in that substrate produces non-fluorescent Lys-Met-MCA and Met-MCA peptides. To insure that the latter two endoprotease cleavages were detected, aminopeptidase M (20 μg/ml final concentration, BOEHRINGER […]) was added to each incubation solutions to produce fluorescent AMC from the Lys-Met-MCA and Met-MCA peptides. […]
# The effect of the reducing agent dithiothreitol (DTT) on β-secretase endoprotease activity was determined using the assay described in Example III. […]
# [3] = system: Peak II β-secretase endoprotease activity; test: Protease inhibitors of β-secretase endoprotease activity in Peak II; type: biochemical, bovine; settings: for Peak II (%) of control: control (no inhibitor) = 100
# Experimental: (§1) The protease inhibitor was added to each assay at the start of the reaction at the appropriate concentration. The extent of inhibition was expressed as a percentage of the activity without the inhibitor (control).
# (§2) The contents of the eluted Con-A bound fraction were fractioned according to molecular size using a Sephacryl S200 column (Krieger, T. K. and Hook, V. Y. H. ibid.) .
# [4] = system: Peak I β-secretase endoprotease activity; test: Protease inhibitors of β-secretase endoprotease activity in Peak I; type: biochemical, bovine; settings: for Peak I (%) of control: control (no inhibitor) = 100
# Experimental: as §1, §2
# [5] = system: β-secretase endoprotease activity in chromaffin vesicle lysate; test: Protease inhibitors of β-secretase endoprotease activity in chromaffin vesicle lysate (Z*Val-Lys-Met-MCA cleavage, with aminopeptidase M); type: biochemical, bovine; settings: for inhibition of β-secretase endoprotease activity in the lysate, in words: chromaffin vesicle lysate; for % CONTROL (β-secretase endoprotease activity): pH 5.5, with aminopeptidase M, activity as % of no-inhibitor control
# Experimental: The β-secretase endoprotease activity was identified by incubating the chromaffin vesicle lysate (2-10 μl of 10-20 mg protein/ml) with the Z*Val-Lys-Met-MCA substrate (100 μM final concentration) and detecting AMC fluorescence. The chromaffin vesicle lysate was prepared as described in Example I. The endoprotease activity was determined as a function of pH by varying the pH of the incubation solution between 3.0 to 8.0 in 0.5 pH increments. Citric acid, sodium phosphate, and Tris-HCl buffers (100 mM final concentration) were used to adjust the pH of the incubation solutions between 3.0 to 5.5, 6.0 to 7.5, and 8.0, respectively. Duplicate samples at each pH increment (100 μl each) were distributed among 22 wells in a covered microtiter well plate and incubated at 37° C. for 8 hours in a water bath.
# As discussed above, endoprotease cleavage between the Met-MCA bond in the Z*Val-Lys-Met-MCA substrate produces fluorescent AMC, but endoprotease cleavage between the Lys-Met or Val-Lys bonds in that substrate produces non-fluorescent Lys-Met-MCA and Met-MCA peptides. To insure that the latter two endoprotease cleavages were detected, aminopeptidase M (20 μg/ml final concentration, BOEHRINGER […]) was added to each incubation solutions to produce fluorescent AMC from the Lys-Met-MCA and Met-MCA peptides. Prior to adding the aminopeptidase M, each incubation solution was adjusted to a pH 8.3 using Tris-HCl because aminopeptidase M functions at a basic pH. A second incubation at 37° C. for 1 hour in the water bath was conducted to complete the aminopeptidase M reaction.
# Upon termination of that second incubation, AMC fluorescence was assayed using a fluorometer (IDEXX fluorometer, FCA Fluorescence Concentration Analyzer, cat. no. 10-105-2, BAXTER HEALTH CARE CORP., Mundelein, Ill.) at excitation and emission wavelengths of 365 and 450 nm, respectively. Standard AMC concentrations were also measured to quantitate relative fluorescence with the molar amount (pmol) of AMC generated by the secretase. The resulting AMC fluorescence reflects the endoprotease activity in cleaving either the Met-MCA, Lys-Met. and Val-Lys bonds in the Z*Val-Lys-Met-MCA substrate.
# The effect of the aminopeptidase M and the basic pH buffer used in the β-secretase endoprotease activity assay was determined. The assay was conducted as described in Example VIII with DTT. Three assays were conducted, one with aminopeptidase M in its basic pH buffer, another with the basic pH buffer but not aminopeptidase M, and a third without either the buffer or the aminopeptidase M. Briefly, the chromaffin vesicle lysate and the substrate Z*Val-Lys-Met-MCA were incubated for 30 minutes at a specified pH and the resulting fluorescence measured. The aminopeptidase M in the basic pH buffer or that buffer alone (final concentration of 75 mM Tris-HCl pH 8.2) was added to the assay and incubated an additional 60 minutes at 37° C. […] The assay conducted with aminopeptidase M and its basic pH buffer and that of the control assay having just the basic pH buffer produced approximately the same amount of fluorescence.
# The effect of various protease inhibitors on β-secretase endoprotease activity in the lysate was determined at the pH optimum 5.5 in the assay described in Example IX containing aminopeptidase M. Protease inhibitors specific for various protease classes were used. The protease inhibitor was added to each assay at the start of the reaction at the appropriate concentration. The extent of inhibition was expressed as a percentage of the activity without the inhibitor (control). Triplicate assays varied by less than 10%.
# chromaffin cells = test: Aβ-peptide secretion by primary chromaffin cell cultures (RIA of Aβ1-40 in media); type: cell-based, bovine; settings: 15 minutes
# Experimental: Primary chromaffin cell cultures containing approximately 2 million cells in each culture were produced using established methods (Hook et al., ibid.; and Tezapsidis et al., ibid.). Exocytosis of the contents of the vesicles in such cells was induced by exposing the cells to KCl (50 mM) or nicotine (10 μM) for 15 minutes.
smiles,measurement,setting,value
"O[C@H](CS)[C@H](O)CS (racemic) [DTT, dithiothreitol]",RATIO of activities (with/without DTT),[1]; Adrenal Medulla Homgenate,4.7
same,RATIO of activities (with/without DTT),"[1]; Pellet from 1st 8,800 rpm Centrifugation (crude vesicle fraction)",3.2
same,RATIO of activities (with/without DTT),"[1]; Pellet from 2nd 8,800 rpm Centrifugation (washed vesicle fraction)",6.3
same,RATIO of activities (with/without DTT),"[1]; Pellet from 1,500 rpm Centrifugation (nuclear fraction)",11.6
same,RATIO of activities (with/without DTT),"[1]; Pellet from 25,000 rpm Discontinuous Gradient Centrifugation (vesicle fraction)",11.0
same,increase in the β-secretase endoprotease activity,[2],approximately 5 fold
"c1cnc2c(c1)ccc1cccnc12 [1,10 Phenanthroline]","inhibition of Peak II activity, in words",[3],only slightly inhibited
same,Peak II (%) of control,[3]; inhibitor 500 μM,72%
same,"inhibition of Peak I activity, in words",[4],significantly inhibited
same,Peak I (%) of control,[4]; inhibitor 500 μM,31%
CC(C)C[C@H](NC(=O)[C@@H](NC(=O)N[C@@H](Cc1ccccc1)C(=O)O)[C@@H]1CCN=C(N)N1)C(=O)N[C@H](C=O)Cc1ccccc1 [Chymostatin],"inhibition of Peak II activity, in words",[3],maximally inhibited; also recorded: inhibited less than that of the lysate
same,Peak II (%) of control,[3]; inhibitor 10 μM,35%
same,"inhibition of β-secretase endoprotease activity in the lysate, in words",[5],greatly inhibited
same,% CONTROL (β-secretase endoprotease activity),[5]; inhibitor 10 μM,11%
same,"inhibition of Peak I activity, in words",[4],maximally inhibited; also recorded: inhibited less than that of the lysate
same,Peak I (%) of control,[4]; inhibitor 10 μM,0%
CC(C)CCNC(=O)[C@H](CC(C)C)NC(=O)[C@H]1O[C@@H]1C(=O)O [E64c],"inhibition of Peak II activity, in words",[3],maximally inhibited; also recorded: completely inhibited
same,Peak II (%) of control,[3]; inhibitor 10 μM,0%
same,"inhibition of β-secretase endoprotease activity in the lysate, in words",[5],completely inhibited
same,% CONTROL (β-secretase endoprotease activity),[5]; inhibitor 10 μM,0%
same,"inhibition of Peak I activity, in words",[4],maximally inhibited; also recorded: completely inhibited
same,Peak I (%) of control,[4]; inhibitor 10 μM,0%
"O=C(O)CN(CCN(CC(=O)O)CC(=O)O)CC(=O)O [EDTA, ethylenediaminetetraacetic acid]",Peak II (%) of control,[3]; inhibitor 1 mM,138%
same,% CONTROL (β-secretase endoprotease activity),[5]; inhibitor 1 mM,100%
same,Peak I (%) of control,[4]; inhibitor 1 mM,99%
O=C(O)CN(CCOCCOCCN(CC(=O)O)CC(=O)O)CC(=O)O [EGTA],Peak II (%) of control,[3]; inhibitor 1 mM,142%
same,% CONTROL (β-secretase endoprotease activity),[5]; inhibitor 1 mM,99%
same,Peak I (%) of control,[4]; inhibitor 1 mM,108%
"[Cl-].[K+] [KCl, potassium chloride]",increase in the concentration of Aβ1-40 peptide in the media relative to control media,chromaffin cells; KCl 50 mM,approximately 350 fold
CC(=O)N[C@@H](CC(C)C)C(=O)N[C@@H](CC(C)C)C(=O)N[C@H](C=O)CCCNC(=N)N [Leupeptin],"inhibition of Peak II activity, in words",[3],maximally inhibited; also recorded: completely inhibited
same,Peak II (%) of control,[3]; inhibitor 100 μM,0%
same,"inhibition of β-secretase endoprotease activity in the lysate, in words",[5],completely inhibited
same,% CONTROL (β-secretase endoprotease activity),[5]; inhibitor 100 μM,0%
same,"inhibition of Peak I activity, in words",[4],maximally inhibited; also recorded: completely inhibited
same,Peak I (%) of control,[4]; inhibitor 100 μM,0%
"O=S(=O)(F)Cc1ccccc1 [PMSF, phenylmethylsulfonyl fluoride]","inhibition of β-secretase endoprotease activity in the lysate, in words",[5],significantly inhibited
same,% CONTROL (β-secretase endoprotease activity),[5]; inhibitor 100 μM,58%
CC(C)CC(=O)N[C@H](C(=O)N[C@H](C(=O)N[C@@H](CC(C)C)[C@@H](O)CC(=O)N[C@@H](C)C(=O)N[C@@H](CC(C)C)[C@@H](O)CC(=O)O)C(C)C)C(C)C [Pepstatin A] (Isovaleryl-VV[Sta]A[Sta]-OH),"inhibition of Peak II activity, in words",[3],did not significantly inhibit; also recorded: increased the activity
same,Peak II (%) of control,[3]; inhibitor 100 μM,132%
same,"inhibition of β-secretase endoprotease activity in the lysate, in words",[5],slightly inhibited
same,% CONTROL (β-secretase endoprotease activity),[5]; inhibitor 10 μM,78%
same,"inhibition of Peak I activity, in words",[4],did not significantly inhibit; also recorded: slightly inhibited
same,Peak I (%) of control,[4]; inhibitor 100 μM,85%
CN1CCCC1c1cccnc1 (centres unmarked) [nicotine],increase in the concentration of Aβ1-40 peptide in the media relative to control media,chromaffin cells; nicotine 10 μM,~550 fold
O=C(O)c1cc[c]([Hg][OH])cc1 [pHMB],"inhibition of Peak II activity, in words",[3],slightly inhibited; also recorded: inhibited less than that of the lysate
same,Peak II (%) of control,[3]; inhibitor 1 mM,68%
same,"inhibition of β-secretase endoprotease activity in the lysate, in words",[5],greatly inhibited
same,% CONTROL (β-secretase endoprotease activity),[5]; inhibitor 1 mM,35%
same,"inhibition of Peak I activity, in words",[4],slightly inhibited; also recorded: inhibited less than that of the lysate
same,Peak I (%) of control,[4]; inhibitor 1 mM,67%
